Patent US10655099B2, “Animal protein-free media for cultivation of cells” (Baxalta Incorporated, priority 2004, dated 2020)

Key:
GD8/6 cells = details: 0-18 mg/L (as HCl salt) in BAV-medium with 0.25% soy hydrolysate vs unsupplemented 0.25% or 0.4% soy hydrolysate
Experimental: Small scale experiments with GD8/6 cells in suspension culture were carried in Techne spinner flasks at 200 ml working volume in batch refeed mode at 37° C., without pH and pO2 control.
The activity of Factor VIII (FVIII) (cf. FIGS. 1 to 5 and 9) was measured by a chromogenic assay (Chromogenic, Sweden).
The cell specific productivity is defined as the specific amount of produced protein (U or μg) per number of cells per day (cf. FIGS. 7 and 9) or as the specific amount of produced protein (U) produced per amount of D-glucose consumed by the cells (cf. FIG. 8).

[1] = system: GD8/6 cells (CHO-cells stably expressing Factor VIII)
Experimental: (§1) Cell cultures of recombinant mammalian cells (e.g. CHO-cells stably expressing Factor VIII=GD8/6-cells) were grown in suspension in a chemostat culture in 10 l bioreactors. The culture conditions of 37° C., oxygen saturation 20% and pH 7.0 to 7.1 were kept constant. The cultures were supplied with a constant feed of BAV-medium as defined in Example 1 additionally supplemented with soy hydrolysates in the range of […] and/or addition of putrescine.2HCl in the range of 0-1 mg/L (cf. FIG. 1-5).
Cell counts from suspension cells or immobilized cells were determined either by counting with a CASY® cell counter as described by Schärfe et al., (Biotechnologie in LaborPraxis 10: 1096-1103 (1988)) or by citric acid extraction and fluorescent staining of the nuclei followed by counting with a NucleoCounter® (Chemometec, DK). The specific growth rate (μ) is calculated from the increase of the cell densities (X1) and/or the dilution rate (D) of the steady state of chemostat cultures of suspensions cells over a certain time interval (t): μ=D+In (Xt I X0)/t

[2] = system: GD8/6 cells (CHO-cells stably expressing Factor VIII); experiment: Volumetric FVIII productivity of GD8/6 cells in chemostat culture (chromogenic FVIII assay); type: cell-based
Experimental: as §1
The volumetric productivity is calculated from the amount of activity units or antigen titers yielded per liter reactor volume per day (U/L/d or mg/L/d) in the respective production systems.

Recombinant BHK cells = details: 0.25% (w/v) soy hydrolysate + 1.8 mg/L putrescine.2HCl vs 0.25% soy peptone alone; 3 days; EPO activity per glucose consumption
Experimental: Recombinant BHK cells were grown to confluence in 5% (v/v) fetal calf serum containing medium. The cells were washed with protein-free medium and incubated for 3 days in BAV medium supplemented with 0.25% (w/v) soy hydrolysate or 0.25% (w/v) soy hydrolysate+1.8 mg/L putrescine.2HCl (FIG. 8).

[3] = 0.25% (w/v) soy hydrolysate + 1 mg/L putrescine.2HCl
[4] = 0.25% (w/v) soy hydrolysate + 1 mg/L putrescine.2HCl vs 0.25% soy hydrolysate alone

Row | Structure (SMILES) | cell specific productivity (FVIII), change (GD8/6 cells) | variation of specific growth rates between soy hydrolysate lots [1, 3] | specific growth rate, change [1, 4] | variation of volumetric FVIII-productivity between soy hydrolysate lots [2, 3] | volumetric and cell specific FVIII-productivity, change [2, 4] | volumetric productivity of FVIII, effect of addition ([2]; addition to BAV-medium with 0.25% (w/v) soy hydrolysate, due to increased cell specific FVIII productivity) | increase in EPO productivity (Recombinant BHK cells) [%]
1 | NCCCNCCCCNCCCN [spermine] | significant increase |  |  |  |  |  | 
2 | NCCC[C@H](N)C(=O)O [ornithine] | significant increase |  |  |  |  |  | 
3 | NCCCCN [putrescine] | significant increase | only minor variations | increases | only minor variations | increases | over proportional increased | 16
